Assay results from paper PMC6562844, “A Basic Study of Photodynamic Therapy with Glucose-Conjugated Chlorin e6 Using Mammary Carcinoma Xenografts” (Cancers, 2019).
Values after ≈ are worked out from the molar mass of the structure shown. Read-outs that look alike come from different tables or passages of the source.

Assays:
SNP tumors = assay: Intratumoral localization in SNP tumors; type: in vivo, NOD/ShiJic-scidJcl mice; conditions: 10 mg/kg i.v.
Description: Six-week-old female NOD/ShiJic-scidJcl mice (CLEA Japan, Tokyo, Japan) were maintained in isolators under specific pathogen-free conditions. All SCID mice were housed and handled under clean conditions using a Jic rack (Jic Co., Kanagawa, Japan), sterilized water, cages, beddings, and food (CL-2; CLEA Japan, Tokyo, Japan). Food and water were given ad libitum. SNP cells were inoculated subcutaneously in the shaved lower dorsum of mice at a density of 1 × 10^6 cells in 0.1 mL phosphate buffered salts (Nacalai Tesque Inc., Kyoto, Japan) per mouse using a 26-gauge syringe. The treatments were initiated when the average tumor volume reached about 100 mm^3 in tumor model. The use of animals and the procedures employed in this study were approved by the Animal Research Committee of Tottori University (project number: 15-T-48).
To determine the intratumoral localization of G-Ce6, tumors were excised either 5 min or 3 h after G-Ce6 (10 mg/kg, i.v.) administration. Samples were immediately mounted in Tissue-Tek® O.C.T. compound (Sakura® Finetek., Tokyo, Japan) and snap-frozen in dry ice with acetone. Cryostat cross sections (10-μm slices) were taken from the center of each tumor. Each section was examined using the all-in-one fluorescence microscope with a filter (excitation, 405 nm; emission, 640 nm).

SNP cells = assay: Photodynamic cytotoxicity in SNP cells (Cell Counting Kit-8); type: cell-based, canine; conditions: for Cell viability compared with 0 J/cm^2 of light: p < 0.01; for IC50: Canis lupus familiaris, light or radiation study, 24 h, 24 h incubation, 650-nm laser 10 mW/cm^2, viability 24 h after PDT, read-out: IC50 against SNP cells
Description: We seeded 1 × 10^4 SNP cells into each well of 96-well plates (Corning Inc., New York, NY, USA) followed by overnight incubation. Cells were then incubated with various concentrations of G-Ce6 for 24 h at 37 °C. After washing with fresh media, the cells were irradiated with 650-nm light emitted by a semiconductor laser (Osada Electric Co., Ltd., Tokyo, Japan), using an optical fiber with a micro-lens delivery attachment (Pioneer Optics, Inc., Windsor Lock, CT, USA). PDT was performed at 10 mW/cm^2 in cells exposed to six concentrations of NPe6 and G-Ce6 (0, 0.064, 0.32, 1.6, 8.0, or 40.0 μg/mL) using four light doses (0, 1, 5, or 15 J/cm^2). The cells were then incubated for 24 h in the dark prior to examining cell viability using the Cell Counting Kit-8 (Dojindo, Kumamoto, Japan), according to the manufacturer’s instructions.

CCC1=C(C)c2cc3[nH]c(cc4nc(c(CC(=O)OC)c5[nH]c(cc1n2)c(C)c5C(=O)OC)[C@@H](CCC(=O)OC)[C@@H]4C)c(C)c3C(C)OCCCS[C@@H]1O[C@H](CO)[C@@H](O)[C@H](O)[C@H]1O (stereo partly drawn) [G-Ce6, Methyl (7S,8S)-18-ethyl-5-(2-methoxy-2-oxoethyl)-7-(3-methoxy-3-oxopropyl)-2,8,12,17-tetramethyl-13-(1-(3-(((2S,3R,4S,5S,6R)-3,4,5-trihydroxy-6-(hydroxymethyl)tetrahydro-2H-pyran-2-yl)thio)propoxy)ethyl)-7H,8H-porphyrin-3-carboxylate]
Intratumoral localization of fluorescence (SNP tumors; 5 min after administration): within the tumor blood vessel | Intratumoral localization of fluorescence (SNP tumors; 3 h post administration): in both tumor interstitial tissue and tumor cells | Cell viability compared with 0 J/cm^2 of light (SNP cells; 1.6 μg/mL, 15 J/cm^2): significantly lower | Cell viability compared with 0 J/cm^2 of light (SNP cells; 8 μg/mL, 5 J/cm^2 and 15 J/cm^2): significantly lower | Cell viability compared with 0 J/cm^2 of light (SNP cells; 40 μg/mL, 1, 5, and 15 J/cm^2): significantly lower | Cell death in the absence of laser irradiation (SNP cells; <40 μg/mL G-Ce6, no laser irradiation): not observed | IC50 (SNP cells; light dose 1 J/cm^2): 33.4 µg/mL (≈ 37.4 µM) | IC50 (SNP cells; light dose 5 J/cm^2): 10.4 µg/mL (≈ 11.6 µM) | IC50 (SNP cells; light dose 15 J/cm^2): 1.7 µg/mL (≈ 1.9 µM)
